Values after ≈ are worked out from the molar mass of the structure shown. Read-outs that look alike come from different tables or passages of the source.
Tests used:
K. pneumoniae ATCC 13883 = assay: MIC by microdilution, K. pneumoniae ATCC 13883; format: cell-based; settings: Klebsiella pneumoniae, ATCC13883
Description: (§1) Compounds were tested against Gram-positive and Gram-negative bacteria, including sensitive or drug resistant strains from American Type Culture Collection (ATCC), as well as resistant clinical isolates from the culture collection of the Laboratory for Control of Hospital Infections (Sechenov University, Moscow, Russia). Collection cultures of Gram-positive bacteria: Staphylococcus aureus ATCC 25923, Staphylococcus aureus ATCC 3798, Staphylococcus aureus ATCC 700,699 and clinical isolates of Gram-positive bacteria: Staphylococcus aureus 5, Staphylococcus aureus 10, Staphylococcus aureus 100 KS, Staphylococcus epidermidis 533, Enterococcus faecium 569 and collection cultures of Gram-negative bacteria: Escherichia coli ATCC 25922, Klebsiella pneumoniae ATCC 13883, Salmonella cholerasuis ATCC 14,028 were used.
(§2) For the cultivation of the strains, various nutrient media were used: Trypticase Soy Agar BBL for Staphylococcus sp., E. coli, K. pneumoniae, S. cholerasuis and Columbia Agar Base BBL for the cultivation of Enterococcus sp. Cultures grown on appropriate nutrient media at 35 °C for 1 day were used to set up experiments. For determination of the antibacterial action Mueller-Hinton (Acumedia, Baltimore, MD, USA) liquid medium was used. The minimum inhibitory concentrations (MIC) were determined by the microdilution method in 96 well sterile plates in a cation-adjusted Müller-Hinton medium in accordance with the requirements of the Institute of Clinical and Laboratory Standards (CLSI/NCCLS). MIC was defined as the minimum drug concentration that completely prevents the growth of the test organism.

S. aureus 100 KC = assay: MIC by microdilution, S. aureus 100 KC; format: cell-based; settings: Staphylococcus aureus
Description: as §1, §2

S. aureus 10 = assay: MIC by microdilution, S. aureus 10; format: cell-based; settings: Staphylococcus aureus
Description: as §1, §2

[1] = Determination of lipophilicity, LogPow by HPLC method; format: physicochemical; settings: experimental, pH 7.4
Source text: We used the partition coefficient as an indicator of lipophilicity. The partition coefficient (P) is defined as the ratio of the equilibrium solute concentrations in a two-phase system of immiscible solvents. The most common in practice is the octanol-water (Pow) system. The partition coefficient is usually represented as a decimal logarithm (LogPow). It can be measured in several ways. A most advanced, accurate, and less time-consuming is the HPLC method for determining Pow using high-performance liquid chromatography. HPLC is performed on an analytical column with a solid phase containing long hydrocarbon chains chemically bound to silica gel. The retention time on such a column (Rt) is directly related to the partition coefficient Pow. The most informative in our case was the partition coefficient at a physiological pH value of 7.4. It was at this pH that the main biological experiments with the studied substances were carried out, namely tests of antimicrobial activity and cytotoxicity. HPLC was performed on a Shimadzu LC-20AD system using Kromasil-100-5-C18 (Akzo-Nobel) column, 4.6 × 250 mm, 20 °C temperature, UV detection, mobile phase A—0.2% HCOONH4), mobile phase B-MeCN, (pH 7.4), fl-1 mL/min., loop 20 mkl. After calibration using substances with a known LogPow, it is possible to recalculate Rt to LogPow. For calibration, we used aniline (LogPow 0.9), p-chloroaniline (LogPow 1.8), diphenylamine (LogPow 3.4), triphenylamine (LogPow 5.7).

P. aeruginosa ATCC 27853 = assay: MIC by microdilution, P. aeruginosa ATCC 27853; format: cell-based; settings: Pseudomonas aeruginosa, ATCC27853
Description: as §2

E. coli ATCC 25922 = assay: MIC by microdilution, E. coli ATCC 25922; format: cell-based, Escherichia coli
Description: as §1, §2

E. faecium 569 = assay: MIC by microdilution, E. faecium 569; format: cell-based, Enterococcus faecium
Description: as §1, §2

S. aureus ATCC 25923 = assay: MIC by microdilution, S. aureus ATCC 25923; format: cell-based; settings: Staphylococcus aureus, ATCC25923
Description: as §1, §2

S. epidermidis 533 = assay: MIC by microdilution, S. epidermidis 533; format: cell-based; settings: Staphylococcus epidermidis
Description: as §1, §2

[2] = system: S. cholerasuis ATCC 14028; assay: MIC by microdilution, S. cholerasuis ATCC 14028; format: cell-based; settings: Salmonella, ATCC14028
Description: as §1, §2

S. aureus ATCC 3798 = assay: MIC by microdilution, S. aureus ATCC 3798; format: cell-based; settings: Staphylococcus aureus, ATCC3798
Description: as §1, §2

S. aureus ATCC 700699 = assay: MIC by microdilution, S. aureus ATCC 700699; format: cell-based, Staphylococcus aureus
Description: as §1, §2

S. aureus 5 = assay: MIC by microdilution, S. aureus 5; format: cell-based; settings: Staphylococcus aureus
Description: as §1, §2

[3] = substances with a known LogPow used for HPLC calibration; cited from earlier work
[4] = system: Gram-positive and Gram-negative bacteria; assay: Antibacterial activity in vitro, strain panel in general; format: cell-based; settings: general statement over the strain panel
Description: as §1, §2

[5] = K. pneumoniae ATCC 13883, read-out: MIC
[6] = S. aureus 100 KC, methicillin resistant (MRSA) clinical isolate, read-out: MIC
[7] = clinical isolate S. aureus 10, sensitive to all antibiotics, read-out: MIC
[8] = P. aeruginosa ATCC 27853, read-out: MIC
[9] = Escherichia coli, ATCC25922, E. coli ATCC 25922, read-out: MIC
[10] = Enterococcus faecium, E. faecium 569, resistant to cefuroxime, clindamycin, gentamycin, vancomycin, doxycycline, read-out: MIC
[11] = S. aureus ATCC 25923, sensitive to all antibiotics, read-out: MIC
[12] = S. epidermidis 533, resistant to gentamicin, read-out: MIC
[13] = S. cholerasuis ATCC 14028, read-out: MIC
[14] = S. aureus ATCC 3798, multiresistant incl. ciprofloxacin, levofloxacin, read-out: MIC
[15] = Staphylococcus aureus, ATCC700699, S. aureus ATCC 700699, resistant to levofloxacin, read-out: MIC
[16] = S. aureus 5, methicillin resistant (MRSA) clinical isolate, read-out: MIC
[17] = S. aureus ATCC 700699, resistant to levofloxacin

MIC (K. pneumoniae ATCC 13883; [5]) | MIC (S. aureus 100 KC; [6]) | MIC (S. aureus 10; [7]) | LogPow [1] | MIC (P. aeruginosa ATCC 27853; [8]) | MIC (E. coli ATCC 25922; [9]) | MIC (E. faecium 569; [10]) | MIC (S. aureus ATCC 25923; [11]) | MIC (S. epidermidis 533; [12]) | MIC (S. aureus ATCC 3798; [14]) | MIC (S. aureus ATCC 700699; [15]) | MIC (S. aureus 5; [16]) | Structure (SMILES) | MIC [2, 13] | LogPow of calibration substances [3] | other results
> 64 µg/mL | 16 µg/mL | 8 µg/mL | 1.2 | > 64 µg/mL | > 64 µg/mL | 32 µg/mL | 32 µg/mL | 32 µg/mL | 16 µg/mL | > 64 µg/mL | 16 µg/mL | OCCCn1cc([C+](c2cn(CCCO)c3ccccc23)c2cn(CCCO)c3ccccc23)c2ccccc21.[Cl-] [8b, tris(1-(3-Hydroxypropyl)-1H-indol-3-yl)methylium chloride] | > 64 µg/mL | – | –
> 64 µg/mL | 64 µg/mL | 16 µg/mL | 1.15 | > 64 µg/mL | 16 µg/mL | > 64 µg/mL | 32 µg/mL | 32 µg/mL | 32 µg/mL | 32 µg/mL | 64 µg/mL | OCCn1cc([C+](c2cn(CCO)c3ccccc23)c2cn(CCO)c3ccccc23)c2ccccc21.[Cl-] [8a, tris(1-(2-Hydroxyethyl)-1H-indol-3-yl)methylium chloride] | > 64 µg/mL | – | –
– | – | – | – | – | – | – | – | – | – | – | – | Nc1ccc(Cl)cc1 [p-chloroaniline] | – | 1.8 | –
8 µg/mL | 16 µg/mL | 8 µg/mL | 2.9 | > 64 µg/mL | 32 µg/mL | > 64 µg/mL | 16 µg/mL | 16 µg/mL | 16 µg/mL | 8 µg/mL | 8 µg/mL | OCCCCn1cc([C+](c2cn(CCCCO)c3ccccc23)c2cn(CCCCO)c3ccccc23)c2ccccc21.[Cl-] [8c, tris(1-(4-Hydroxybutyl)-1H-indol-3-yl)methylium chloride] | > 64 µg/mL | – | –
0.25 µg/mL (≈ 0.692 µM) | 32 µg/mL (≈ 88.6 µM) | 0.13 µg/mL (≈ 0.36 µM) | – | 1 µg/mL (≈ 2.77 µM) | 0.06 µg/mL (≈ 0.166 µM) | 1 µg/mL (≈ 2.77 µM) | 0.25 µg/mL (≈ 0.692 µM) | 0.5 µg/mL (≈ 1.38 µM) | 32 µg/mL (≈ 88.6 µM) | 16 µg/mL (≈ 44.3 µM) | 0.25 µg/mL (≈ 0.692 µM) | C[C@H]1COc2c(N3CCN(C)CC3)c(F)cc3c(=O)c(C(=O)O)cn1c23 [Lf, levofloxacin, reference compound] | 0.13 µg/mL (≈ 0.36 µM) | – | –
– | – | – | – | – | – | – | – | – | – | – | – | c1ccc(Nc2ccccc2)cc1 [diphenylamine] | – | 3.4 | –
– | – | – | – | – | – | – | – | – | – | – | – | c1ccc(N(c2ccccc2)c2ccccc2)cc1 [triphenylamine] | – | 5.7 | –
– | – | – | – | – | – | – | – | – | – | – | – | Nc1ccccc1 [aniline] | – | 0.9 | –
– | – | – | – | – | – | – | – | – | – | – | – | CCN(CC)c1ccc(C(=C2C=CC(=[N+](CC)CC)C=C2)c2ccccc2)cc1 [BG, brilliant green, reference compound] | – | – | MIC (K. pneumoniae ATCC 13883): 8 µg/mL; MIC (S. aureus 100 KC; MRSA): 0.06 µg/mL; MIC (S. aureus 10; 10): 0.13 µg/mL; MIC (P. aeruginosa ATCC 27853): > 64 µg/mL; MIC (E. coli ATCC 25922; Escherichia coli, ATCC25922): 4 µg/mL; MIC (E. faecium 569; Enterococcus faecium, 569): 0.25 µg/mL; MIC (S. aureus ATCC 25923): 0.06 µg/mL; MIC (S. epidermidis 533; 533): 0.06 µg/mL; MIC [2]: 16 µg/mL; MIC (S. aureus ATCC 3798): 0.06 µg/mL; MIC (S. aureus ATCC 700699; Staphylococcus aureus, ATCC700699): 1 µg/mL; MIC (S. aureus 5; MRSA): 0.06 µg/mL

Structure (SMILES) | MIC (K. pneumoniae ATCC 13883; [5]) | MIC (S. aureus 100 KC; [6]) | MIC (S. aureus 10; [7]) | LogPow [1] | MIC (P. aeruginosa ATCC 27853; [8]) | MIC (E. coli ATCC 25922; [9]) | MIC (E. faecium 569; [10]) | MIC (S. aureus ATCC 25923; [11]) | MIC (S. epidermidis 533; [12]) | MIC (S. aureus ATCC 3798; [14]) | MIC (S. aureus ATCC 700699; [15]) | MIC (S. aureus 5; [16]) | MIC [2, 13] | LogPow of calibration substances [3] | other results
OCCCCCn1cc([C+](c2cn(CCCCCO)c3ccccc23)c2cn(CCCCCO)c3ccccc23)c2ccccc21.[Cl-] [8d, tris(1-(5-Hydroxypentyl)-1H-indol-3-yl)methylium chloride] | 2 µg/mL | 2 µg/mL | 1 µg/mL | 4 | > 64 µg/mL | 8 µg/mL | 8 µg/mL | 2 µg/mL | 1 µg/mL | 2 µg/mL | 2 µg/mL | 4 µg/mL | > 64 µg/mL | – | MIC (E. coli ATCC 25922; E. coli ATCC 25922): moderate level of activity; MIC (antibacterial activity, strains not specified) [4]: highly active against Gram-positive bacteria; MIC (S. aureus ATCC 700699; [17]): active
OCCCCCCn1cc([C+](c2cn(CCCCCCO)c3ccccc23)c2cn(CCCCCCO)c3ccccc23)c2ccccc21.[Cl-] [8e, tris(1-(6-hydroxyhexyl)-1H-indol-3-yl)methylium chloride] | 8 µg/mL | 0.5 µg/mL | 0.5 µg/mL | 5.4 | > 64 µg/mL | 8 µg/mL | > 64 µg/mL | 0.5 µg/mL | 0.5 µg/mL | 0.5 µg/mL | 0.5 µg/mL | 0.5 µg/mL | > 64 µg/mL | – | MIC (E. coli ATCC 25922; E. coli ATCC 25922): moderate level of activity; MIC (E. faecium 569; E. faecium 569, resistant to cefuroxime, clindamycin, gentamycin, vancomycin, doxycycline): >64 µg/mL; MIC (antibacterial activity, strains not specified) [4]: highly active against Gram-positive bacteria; MIC ([4]; read-out: MIC (antibacterial activity, strains not specified)): 0.5 µg/mL; MIC (S. aureus ATCC 700699; [17]): active
